Consider 29 compounds from patent US20090018134A1, “Compounds - 945” (AstraZeneca AB, priority 2007, published 2009).

For this assay, the target named is T1, mTOR (Homo sapiens, UniProt P42345).
T1 construct: FLAG; made in house
T1 sequence (P42345 1362-2549): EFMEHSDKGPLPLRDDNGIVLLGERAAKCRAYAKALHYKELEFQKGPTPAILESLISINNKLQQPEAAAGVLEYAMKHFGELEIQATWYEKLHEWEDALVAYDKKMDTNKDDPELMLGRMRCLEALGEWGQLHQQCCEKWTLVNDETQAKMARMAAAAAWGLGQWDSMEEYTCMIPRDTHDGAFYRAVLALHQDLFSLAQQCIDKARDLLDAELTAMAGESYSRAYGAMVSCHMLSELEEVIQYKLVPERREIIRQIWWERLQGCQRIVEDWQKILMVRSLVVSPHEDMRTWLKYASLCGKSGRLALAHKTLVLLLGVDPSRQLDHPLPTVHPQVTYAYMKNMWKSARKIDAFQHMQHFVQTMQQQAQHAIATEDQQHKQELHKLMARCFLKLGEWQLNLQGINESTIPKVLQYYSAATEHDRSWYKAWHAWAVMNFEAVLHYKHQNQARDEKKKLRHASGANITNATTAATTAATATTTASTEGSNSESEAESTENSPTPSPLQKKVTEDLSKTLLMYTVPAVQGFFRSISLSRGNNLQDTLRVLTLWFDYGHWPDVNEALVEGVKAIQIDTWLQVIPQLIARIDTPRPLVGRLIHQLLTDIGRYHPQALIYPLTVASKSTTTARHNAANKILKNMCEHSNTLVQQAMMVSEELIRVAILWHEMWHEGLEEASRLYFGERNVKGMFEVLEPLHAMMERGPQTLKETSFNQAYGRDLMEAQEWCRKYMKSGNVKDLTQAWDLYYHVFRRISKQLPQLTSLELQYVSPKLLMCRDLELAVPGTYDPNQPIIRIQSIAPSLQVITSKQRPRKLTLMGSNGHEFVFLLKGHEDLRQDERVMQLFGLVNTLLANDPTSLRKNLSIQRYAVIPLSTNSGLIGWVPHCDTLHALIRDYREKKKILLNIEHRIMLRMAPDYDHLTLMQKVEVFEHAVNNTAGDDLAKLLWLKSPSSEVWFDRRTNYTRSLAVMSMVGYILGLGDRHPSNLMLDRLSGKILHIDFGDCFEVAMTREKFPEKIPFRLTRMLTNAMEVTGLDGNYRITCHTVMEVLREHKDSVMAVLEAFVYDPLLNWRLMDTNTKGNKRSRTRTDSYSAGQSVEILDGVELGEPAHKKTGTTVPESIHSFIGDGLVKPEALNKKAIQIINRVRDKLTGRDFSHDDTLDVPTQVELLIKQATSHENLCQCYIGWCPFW
The assay is described as follows: In Vitro mTOR Kinase Assay (Echo), Test (a)(ii). The note with it: table of enzyme assay Test (a)(ii); read-out: Test (a)(ii) IC50. Type of assay: biochemical. A digest of the protocol: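 FLAG-tagged truncated mTOR (residues 1362-2549), expressed in HEK293 and purified via the FLAG tag, phosphorylated a biotinylated peptide over 2 hours at room temperature. EDTA stopped the reaction. Phospho-T389 was detected overnight by AlphaScreen using the p70 S6K T389 antibody with Protein A/streptavidin beads; IC50 reported.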
As to `CNC(=O)Nc1ccc(-c2nc(N3CCOC[C@@H]3C)cc(C3(S(=O)(=O)CCCO)CC3)n2)cc1` [Example 31g, 1-[4-[4-[1-(3-hydroxypropylsulfonyl)cyclopropyl]-6-[(3S)-3-methylmorpholin-4-yl]pyrimidin-2-yl]phenyl]-3-methylurea], the IC50 was 3.23 nM.

In the case of `C[C@H]1COCCN1c1cc(C2(S(=O)(=O)CCCO)CC2)nc(-c2ccc(NC(=O)Nc3ccc(C(F)(F)F)cc3)cc2)n1` [Example 31h, 1-[4-[4-[1-(3-hydroxypropylsulfonyl)cyclopropyl]-6-[(3S)-3-methylmorpholin-4-yl]pyrimidin-2-yl]phenyl]-3-[4-(trifluoromethyl)phenyl]urea], the IC50 was determined as 0.209 nM.

Take `C[C@H]1COCCN1c1cc(C2(S(=O)(=O)CCCO)CC2)nc(-c2ccc(NC(=O)NCCCO)cc2)n1` [Example 31i, 3-(3-hydroxypropyl)-1-[4-[4-[1-(3-hydroxypropylsulfonyl)cyclopropyl]-6-[(3S)-3-methylmorpholin-4-yl]pyrimidin-2-yl]phenyl]urea]: the IC50 worked out at 3.26 nM.

`C[C@H]1COCCN1c1cc(C2(S(=O)(=O)CCCO)CC2)nc(-c2ccc(NC(=O)Nc3cnn(C)c3)cc2)n1` [Example 31j, 1-[4-[4-[1-(3-hydroxypropylsulfonyl)cyclopropyl]-6-[(3S)-3-methylmorpholin-4-yl]pyrimidin-2-yl]phenyl]-3-(1-methylpyrazol-4-yl)urea]: the IC50 is 1.03 nM.

As for `CCCNC(=O)Nc1ccc(-c2nc(N3CCOC[C@@H]3C)cc(C3(S(=O)(=O)CCCO)CC3)n2)cc1` [Example 31k, 3-[4-[4-[1-(3-hydroxypropylsulfonyl)cyclopropyl]-6-[(3S)-3-methylmorpholin-4-yl]pyrimidin-2-yl]phenyl]-1-propylurea], the IC50 is 1.91 nM.

As to `C[C@H]1COCCN1c1cc(C2(S(=O)(=O)CCCO)CC2)nc(-c2ccc(NC(=O)NCCN(C)C)cc2)n1` [Example 31l, 3-(2-dimethylaminoethyl)-1-[4-[4-[1-(3-hydroxypropylsulfonyl)cyclopropyl]-6-[(3S)-3-methylmorpholin-4-yl]pyrimidin-2-yl]phenyl]urea], the IC50 amounted to 214 nM.

In the case of `C[C@H]1COCCN1c1cc(C2(S(=O)(=O)CCCO)CC2)nc(-c2ccc(NC(=O)NC(C)(C)CO)cc2)n1` [Example 31m, 3-(1-hydroxy-2-methylpropan-2-yl)-1-[4-[4-[1-(3-hydroxypropylsulfonyl)cyclopropyl]-6-[(3S)-3-methylmorpholin-4-yl]pyrimidin-2-yl]phenyl]urea], the IC50 was determined as 5.91 nM.

In the case of `CNC(=O)Nc1ccc(-c2nc(N3CCOCC3)cc(C3(C(=O)N(C)C)CC3)n2)cc1` [Example 32, N,N-Dimethyl-1-[2-[4-(methylcarbamoylamino)phenyl]-6-morpholin-4-ylpyrimidin-4-yl]cyclopropane-1-carboxamide], the IC50 came to 3.15 nM.

On to `CNC(=O)Nc1ccc(-c2nc(N3CCOCC3)cc(C3(C(=O)N4CCOC[C@@H]4C)CC3)n2)cc1` [Example 32a, 3-methyl-1-[4-[4-[1-[(3S)-3-methylmorpholine-4-carbonyl]cyclopropyl]-6-morpholin-4-ylpyrimidin-2-yl]phenyl]urea], for which the half-maximal inhibitory concentration (IC50) is 42.5 nM.

For `CNC(=O)Nc1ccc(-c2nc(N3CCOCC3)cc(C3(C(=O)NC4CC4)CC3)n2)cc1` [Example 32b, N-cyclopropyl-1-[2-[4-(methylcarbamoylamino)phenyl]-6-morpholin-4-ylpyrimidin-4-yl]cyclopropane-1-carboxamide], the IC50 was 8.29 nM.

Take `CNC(=O)Nc1ccc(-c2nc(N3CCOCC3)cc(C3(C(=O)N(C)C4CC4)CC3)n2)cc1` [Example 32c, N-cyclopropyl-N-methyl-1-[2-[4-(methylcarbamoylamino)phenyl]-6-morpholin-4-ylpyrimidin-4-yl]cyclopropane-1-carboxamide]: the IC50 turned out to be 2.88 nM.

As to `CNC(=O)Nc1ccc(-c2nc(N3CCOCC3)cc(C3(C(=O)N4CCN(C)CC4)CC3)n2)cc1` [Example 32d, 3-methyl-1-[4-[4-[1-(4-methylpiperazine-1-carbonyl)cyclopropyl]-6-morpholin-4-ylpyrimidin-2-yl]phenyl]urea], the concentration for half-maximal inhibition (IC50) is 13.1 nM.

For the compound `CN(C)C(=O)C1(c2cc(N3CCOCC3)nc(-c3ccc(NC(=O)NC4CC4)cc3)n2)CC1` [Example 33, 1-[2-[4-(Cyclopropylcarbamoylamino)phenyl]-6-morpholin-4-ylpyrimidin-4-yl]-N,N-dimethylcyclopropane-1-carboxamide], the IC50 was found to be 9.29 nM.

For `C[C@H]1COCCN1C(=O)C1(c2cc(N3CCOCC3)nc(-c3ccc(NC(=O)NC4CC4)cc3)n2)CC1` [Example 33a, 3-cyclopropyl-1-[4-[4-[1-[(3S)-3-methylmorpholine-4-carbonyl]cyclopropyl]-6-morpholin-4-ylpyrimidin-2-yl]phenyl]urea], the IC50 turned out to be 58.4 nM.

In the case of `O=C(Nc1ccc(-c2nc(N3CCOCC3)cc(C3(C(=O)NC4CC4)CC3)n2)cc1)NC1CC1` [Example 33b, N-cyclopropyl-1-[2-[4-(cyclopropylcarbamoylamino)phe-nyl]-6-morpholin-4-ylpyrimidin-4-yl]cyclopropane-1-carboxamide], the IC50 came out at 12 nM.

As to `CN(C(=O)C1(c2cc(N3CCOCC3)nc(-c3ccc(NC(=O)NC4CC4)cc3)n2)CC1)C1CC1` [Example 33c, N-cyclopropyl-1-[2-[4-(cyclopropylcarbamoylamino)phe-nyl]-6-morpholin-4-ylpyrimidin-4-yl]-N-methylcyclopropane-1-carboxamide], the half-inhibitory concentration (IC50) came out at 2.58 nM.

As for `CN1CCN(C(=O)C2(c3cc(N4CCOCC4)nc(-c4ccc(NC(=O)NC5CC5)cc4)n3)CC2)CC1` [Example 33d, 3-cyclopropyl-1-[4-[4-[1-(4-methylpiperazine-1-carbonyl)cyclopropyl]-6-morpholin-4-ylpyrimidin-2-yl]phenyl]urea], the IC50 is 133 nM.

With `CN(C)C(=O)C1(c2cc(N3CCOCC3)nc(-c3ccc(NC(=O)NCCO)cc3)n2)CC1` [Example 34, 1-[2-[4-(2-Hydroxyethylcarbamoylamino)phenyl]-6-morpholin-4-ylpyrimidin-4-yl]-N,N-dimethylcyclopropane-1-carboxamide], the IC50 was found to be 4.05 nM.

On to `C[C@H]1COCCN1C(=O)C1(c2cc(N3CCOCC3)nc(-c3ccc(NC(=O)NCCO)cc3)n2)CC1` [Example 34a, 3-(2-hydroxyethyl)-1-[4-[4-[1-[(3S)-3-methylmorpholine-4-carbonyl]cyclopropyl]-6-morpholin-4-ylpyrimidin-2-yl]phenyl]urea], for which the IC50 amounted to 38.7 nM.

On to `O=C(NCCO)Nc1ccc(-c2nc(N3CCOCC3)cc(C3(C(=O)NC4CC4)CC3)n2)cc1` [Example 34b, N-cyclopropyl-1-[2-[4-(2-hydroxyethylcarbamoylamino)phe-nyl]-6-morpholin-4-ylpyrimidin-4-yl]cyclopropane-1-carboxamide], for which the IC50 turned out to be 10.9 nM.

Regarding `CN(C(=O)C1(c2cc(N3CCOCC3)nc(-c3ccc(NC(=O)NCCO)cc3)n2)CC1)C1CC1` [Example 34c, N-cyclopropyl-1-[2-[4-(2-hydroxyethylcarbamoylamino)phe-nyl]-6-morpholin-4-ylpyrimidin-4-yl]-N-methylcyclopropane-1-carboxamide], the IC50 was found to be 3.45 nM.

Regarding `CN1CCN(C(=O)C2(c3cc(N4CCOCC4)nc(-c4ccc(NC(=O)NCCO)cc4)n3)CC2)CC1` [Example 34d, 3-(2-hydroxyethyl)-1-[4-[4-[1-(4-methylpiperazine-1-carbonyl)cyclopropyl]-6-morpholin-4-ylpyrimidin-2-yl]phenyl]urea], the IC50 was found to be 86.3 nM.

In the case of `CNC(=S)Nc1ccc(-c2nc(N3CCOC[C@@H]3C)cc(C3(S(C)(=O)=O)CC3)n2)cc1` [Example 35, 3-Methyl-1-[4-[4-[(3S)-3-methylmorpholin-4-yl]-6-(1-methylsulfonylcyclopropyl)pyrimidin-2-yl]phenyl]thiourea], the half-maximal inhibitory concentration (IC50) is 5.31 nM.

For the compound `CCNC(=S)Nc1ccc(-c2nc(N3CCOC[C@@H]3C)cc(C3(S(C)(=O)=O)CC3)n2)cc1` [Example 35a, 3-ethyl-1-[4-[4-[(3S)-3-methylmorpholin-4-yl]-6-(1-methylsulfonylcyclopropyl)pyrimidin-2-yl]phenyl]thiourea], the IC50 turned out to be 5.52 nM.

Turning to `C[C@H]1COCCN1c1cc(C2(S(C)(=O)=O)CC2)nc(-c2ccc(NC(=S)NCCO)cc2)n1` [Example 35b, 3-(2-hydroxyethyl)-1-[4-[4-[(3S)-3-methylmorpholin-4-yl]-6-(1-methylsulfonylcyclopropyl)pyrimidin-2-yl]phenyl]thiourea], the IC50 turned out to be 0.577 nM.

For `C[C@H]1COCCN1c1cc(C2(S(C)(=O)=O)CC2)nc(-c2ccc(NC(=S)NCCN(C)C)cc2)n1` [Example 35c, 3-(2-dimethylaminoethyl)-1-[4-[4-[(3S)-3-methylmorpholin-4-yl]-6-(1-methylsulfonylcyclopropyl)pyrimidin-2-yl]phenyl]thiourea], the IC50 was determined as 108 nM.

Turning to `C[C@H]1COCCN1c1cc(C2(S(C)(=O)=O)CC2)nc(-c2ccc(NC(=S)NC3CC3)cc2)n1` [Example 35d, 3-cyclopropyl-1-[4-[4-[(3S)-3-methylmorpholin-4-yl]-6-(1-methylsulfonylcyclopropyl)pyrimidin-2-yl]phenyl]thiourea], the IC50 was determined as 4.11 nM.

Regarding `C[C@H]1COCCN1c1cc(C2(S(=O)(=O)CCCO)CC2)nc(-c2ccc(NC(=O)NC3(CO)CC3)cc2)n1` [Example 36a, 3-[1-(hydroxymethyl)cyclopro-pyl]-1-[4-[4-[1-(3-hydroxypropylsulfonyl)cyclopropyl]-6-[(3S)-3-methylmorpholin-4-yl]pyrimidin-2-yl]phenyl]urea], the IC50 came out at 142 nM.

Take `C[C@H]1COCCN1c1cc(C2(S(=O)(=O)c3ccc(F)cc3)CC2)nc(-c2ccc(NC(=O)NCc3ncc[nH]3)cc2)n1` [Example 36aa, 1-[4-[4-[1-(4-fluorophenyl)sulfonylcyclopropyl]-6-[(3S)-3-methylmorpholin-4-yl]pyrimidin-2-yl]phenyl]-3-(1H-imidazol-2-ylmethyl)urea]: the half-inhibitory concentration (IC50) was found to be 74.9 nM.
